Here are results for 27 compounds from patent US9137998B2, “Pesticidal compositions and related methods” (DOW AGROSCIENCES LLC, priority 2013, dated 2015).

The subject of series [1] is Green Peach Aphid (Myzus persicae) (GPA) (MYZUPE). Description: Bioassay for Green Peach Aphid (GPA), foliar spray on cabbage seedlings. The series is classed as in vivo. The following applies: 200 ppm foliar spray, graded after three days, Abbott corrected % control; for mortality at 200 ppm: Myzus persicae, 72 h, read-out: % Control (or Mortality) rating, GPA. The protocol: Cabbage seedlings grown in 3-inch pots, with 2-3 small (3-5 cm) true leaves, were used as test substrate. The seedlings were infested with 20-50 GPA (wingless adult and nymph stages) one day prior to chemical application. Four pots with individual seedlings were used for each treatment. Test compounds (2 mg) were dissolved in 2 mL of acetone/methanol (1:1) solvent, forming stock solutions of 1000 ppm test compound. The stock solutions were diluted 5× with 0.025% Tween 20 in H2O to obtain the solution at 200 ppm test compound. A hand-held aspirator-type sprayer was used for spraying a solution to both sides of […] leaves until runoff. Reference plants (solvent check) were sprayed with the diluent only containing 20% by volume of acetone/methanol (1:1) solvent. Treated plants were held in a holding room for three days at approximately 25° C. and ambient relative humidity (RH) prior to grading. Evaluation was conducted by counting the number of live aphids per plant under a microscope. Percent control was measured by using Abbott's correction formula (W. S. Abbott, “A Method of Computing the Effectiveness of an Insecticide” J. Econ. Entomol. 18 (1925), pp. 265-267) as follows. Corrected % Control=100*(X−Y)/X
X=No. of live aphids on solvent check plants and
Y=No. of live aphids on treated plants
Biological Data for Green Peach Aphid (GPA) (MYZUPE) and Sweetpotato Whitefly-crawler (WF) (BEMITA)” (See Table Section).

Series [2] has as its system Sweetpotato Whitefly-Crawler (Bemisia tabaci) (WF) (BEMITA). Description: Insecticidal test for Sweetpotato Whitefly-crawler (WF) in foliar spray assay on cotton plants. The series is classed as in vivo. The following applies: 200 ppm foliar spray, graded after 9 days, Abbott corrected % control; for mortality at 200 ppm: Bemisia tabaci, 216 h, read-out: % Control (or Mortality) rating, WF. The protocol:
Cotton plants (Gossypium hirsutum) grown in 3-inch pots, with 1 small (4-5 cm) true leaves, were used as test substrate. The plants were infested with 200-400 whitefly eggs 4-5 days prior to chemical application. Four pots with individual plants were used for each treatment. Test compounds (2 mg) were dissolved in 1 mL of acetone solvent, forming stock solutions of 2000 ppm test compound. The stock solutions were diluted 10× with 0.025% Tween 20 in H2O (diluents) to obtain the solution at 200 ppm test compound. A hand-held aspirator-type sprayer was used for spraying a solution to both sides of cotton leaves until runoff. Reference plants (solvent check) were sprayed with the diluent only containing 10% by volume of acetone solvent. Treated plants were held in a holding room for 9 days at approximately 25° C. and ambient relative humidity (RH) prior to grading. Evaluation was conducted by counting the number of live 3-4 nymph stage per plant under a microscope. Percent control was measured by using Abbott's correction formula (W. S. Abbott, “A Method of Computing the Effectiveness of an Insecticide” J. Econ. Entomol. 18 (1925), pp. 265-26′7) as follows. Corrected % Control=100*(X−Y)/X
X=No. of live nymphs on solvent check plants and
Y=No. of live nymphs on treated plants. […]

Consider “2-Methyl-N-(4-methyl-2-(pyridin-3-yl)thiazol-5-yl)-3-(methylsulfinyl)-N-(prop-2-yn-1-yl) propanamide [Compound P5]”, for which the “% Control (or Mortality) rating, GPA” value in series [1] was “A (80-100)”. Moreover, in series [2], the “% Control (or Mortality) rating, WF” value is recorded as “A (80-100)”.

Regarding “4-Chloro-2-(5-fluoropyridin-3-yl)-N-(prop-2-yn-1-yl)thiazol-5-amine hydrochloride [CA1]”, in series [1], the “% Control (or Mortality) rating, GPA” value is on record as “B (More than 0-Less than 80)”. For the same compound, the “% Control (or Mortality) rating, WF” value in series [2] is recorded as “B (More than 0-Less than 80)”.

With “4-Chloro-N-(prop-2-yn-1-yl)-2-(pyrimidin-5-yl)thiazol-5-amine hydrochloride [CA2]”, the “% Control (or Mortality) rating, GPA” value in series [1] was “B (More than 0-Less than 80)”. In series [2], the “% Control (or Mortality) rating, WF” value is “B (More than 0-Less than 80)”.

Regarding `C#CCN(C(=O)OC(C)(C)C)c1sc(Cl)nc1Cl` [CA3, tert-butyl (2,4-dichlorothiazol-5-yl)(prop-2-yn-1-yl)carbamate], the mortality at 200 ppm in series [1] is less than 0%.

Consider `C#CC(C)N(C(=O)OC(C)(C)C)c1sc(Br)nc1C` (stereo not shown) [CA5, tert-butyl (2-bromo-4-methylthiazol-5-yl)(but-3-yn-2-yl)carbamate], for which the mortality at 200 ppm in series [1] and in series [2] was 0 to 80% in each case.

As to `CC#CCN(C(=O)OC(C)(C)C)c1sc(Br)nc1C` [CA6, tert-Butyl (2-bromo-4-methylthiazol-5-yl)(but-2-yn-1-yl)carbamate], the results for the mortality at 200 ppm in series [1] and in series [2] were 0 to 80% and less than 0%, respectively.

On to `C#CCN(C(=O)OC(C)(C)C)c1sc(-c2cccnc2)nc1C` [CA7, tert-Butyl (4-methyl-2-(pyridin-3-yl)thiazol-5-yl)(prop-2-yn-1-yl) carbamate], for which the mortality at 200 ppm in series [1] and in series [2] was 80 to 100% each time.

For `C#CCN(C(=O)OC(C)(C)C)c1sc(-c2cncc(F)c2)nc1C` [CA8, tert-Butyl (2-(5-fluoropyridin-3-yl)-4-methylthiazol-5-yl)(prop-2-yn-1-yl) carbamate], the mortality at 200 ppm in series [1] lay within 0 to 80%; in series [2], 80 to 100%.

Consider `C#CCN(C(=O)OC(C)(C)C)c1sc(-c2cncc(F)c2)nc1Cl` [CA9, tert-Butyl (4-chloro-2-(5-fluoropyridin-3-yl)thiazol-5-yl)(prop-2-yn-1-yl) carbamate], for which the mortality at 200 ppm in series [1] and in series [2] was 80 to 100% in each case.

For the compound `C#CC(C)N(C(=O)OC(C)(C)C)c1sc(-c2cccnc2)nc1C` (stereo not shown) [CA12, tert-Butyl but-3-yn-2-yl(4-methyl-2-(pyridin-3-yl)thiazol-5-yl)carbamate], the mortality at 200 ppm in series [1] and in series [2] was 80 to 100% throughout.

Consider `C#CCNc1sc(-c2cccnc2)nc1C` [CA14, 4-Methyl-N-(prop-2-yn-1-yl)-2-(pyridin-3-yl)thiazol-5-amine], for which the mortality at 200 ppm in series [1] and in series [2] was 0 to 80% each time.

For `C#CCN(C(=O)OC(C)(C)C)c1sc(-c2cccnc2)nc1Cl` [Compound C3, tert-butyl (4-chloro-2-(pyridin-3-yl)thiazol-5-yl)(prop-2-yn-1-yl)carbamate], the mortality at 200 ppm in series [1] and in series [2] was 80 to 100% each time.

For the compound `C#CCN(C(=O)C1CC1)c1sc(-c2cccnc2)nc1Cl` [Compound F2, N-(4-Chloro-2-(pyridin-3-yl)thiazol-5-yl)-N-(prop-2-yn-1-yl)cyclopropane carboxamide], the mortality at 200 ppm in series [1] and in series [2] was 80 to 100% throughout.

As to `C#CCN(C(=O)CC(SC)C(F)(F)F)c1sc(-c2cccnc2)nc1Cl` (stereo not shown) [Compound F3, N-(4-Chloro-2-(pyridin-3-yl)thiazol-5-yl)-4,4,4-trifluoro-3-(methylthio)-N-(prop-2-yn-1-yl) butanamide], the mortality at 200 ppm in series [1] and in series [2] was 80 to 100% throughout.

Turning to `C#CCN(C(=O)CSC)c1sc(-c2cccnc2)nc1Cl` [Compound F4, N-(4-Chloro-2-(pyridin-3-yl)thiazol-5-yl)-2-(methylthio)-N-(prop-2-yn-1-yl)acetamide], the mortality at 200 ppm in series [1] and in series [2] was 80 to 100% each time.

On to `C#CCN(C(=O)C1CC1(F)F)c1sc(-c2cccnc2)nc1Cl` (stereo not shown) [Compound F5, N-(4-chloro-2-(pyridin-3-yl)thiazol-5-yl)-2,2-difluoro-N-(prop-2-yn-1-yl)cyclopropanecarboxamide], for which the mortality at 200 ppm in series [1] and in series [2] was 80 to 100% in each case.

As to `C#CCN(C(=O)C(C)SC)c1sc(-c2cccnc2)nc1Cl` (stereo not shown) [Compound F6, N-(4-chloro-2-(pyridin-3-yl)thiazol-5-yl)-2-(methylthio)-N-(prop-2-yn-1-yl)propanamide], the mortality at 200 ppm in series [1] and in series [2] was 80 to 100% throughout.

With `C#CCN(C(=O)CCSC)c1sc(-c2cccnc2)nc1Cl` [Compound F7, N-(4-chloro-2-(pyridin-3-yl)thiazol-5-yl)-3-(methylthio)-N-(prop-2-yn-1-yl)propanamide], the mortality at 200 ppm in series [1] and in series [2] was 80 to 100% each time.

Regarding `C#CCN(C(=O)CCSCC1CC1(F)F)c1sc(-c2cccnc2)nc1Cl` (stereo not shown) [Compound F8, N-(4-Chloro-2-(pyridin-3-yl)thiazol-5-yl)-3--(((2,2-difluorocyclopropyl)methyl)thio)-N-(prop-2-yn-1-yl)propanamide], the mortality at 200 ppm in series [1] and in series [2] was 80 to 100% in each case.

As to `C#CCN(C(=O)C(C)CSC)c1sc(-c2cccnc2)nc1Cl` (stereo not shown) [Compound F9, N-(4-chloro-2-(pyridin-3-yl)thiazol-5-yl)-2-methyl-3-(methylthio)-N-(prop-2-yn-1-yl)propanamide], the mortality at 200 ppm in series [1] and in series [2] was 80 to 100% in each case.

As to `C#CCN(C(=O)CCSC)c1sc(-c2cccnc2)nc1C` [Compound P1, N-(4-Methyl-2-(pyridin-3-yl)thiazol-5-yl)-3-(methylthio)-N-(prop-2-yn-1-yl)propanamide], the mortality at 200 ppm in series [1] and in series [2] was 80 to 100% each time.

As to `C#CCN(C(=O)C(C)CSC)c1sc(-c2cccnc2)nc1C` (stereo not shown) [Compound P2, 2-Methyl-N-(4-methyl-2-(pyridin-3-yl)thiazol-5-yl)-3-(methylthio)-N-(prop-2-yn-1-yl) propanamide], the mortality at 200 ppm in series [1] and in series [2] was 80 to 100% in each case.

As for `C#CCN(C(=O)CC[S+](C)[O-])c1sc(-c2cccnc2)nc1C` (stereo not shown) [Compound P3, N-(4-Methyl-2-(pyridin-3-yl)thiazol-5-yl)-3-(methylsulfinyl)-N-(prop-2-yn-1-yl)propanamide], the mortality at 200 ppm in series [1] and in series [2] was 80 to 100% in each case.

For the compound `C#CCN(C(=O)CCS(C)(=O)=O)c1sc(-c2cccnc2)nc1C` [Compound P4, N-(4-Methyl-2-(pyridin-3-yl)thiazol-5-yl)-3-(methylsulfonyl)-N-(prop-2-yn-1-yl)propanamide], the mortality at 200 ppm in series [1] and in series [2] was 80 to 100% throughout.

Take `C#CCN(C(=O)CCSCCC(F)(F)F)c1sc(-c2cccnc2)nc1C` [Compound P6, N-(4-Methyl-2-(pyridin-3-yl)thiazol-5-yl)-N-(prop-2-yn-1-yl)-3-((3,3,3-trifluoropropyl)thio) propanamide]: the mortality at 200 ppm in series [2] lay within 80 to 100%.

With `C#CCN(C(=O)CC[S+]([O-])CCC(F)(F)F)c1sc(-c2cccnc2)nc1C` (stereo not shown) [Compound P7, N-(4-Methyl-2-(pyridin-3-yl)thiazol-5-yl)-N-(prop-2-yn-1-yl)-3-((3,3,3-trifluoropropyl)sulfinyl) propanamide], the mortality at 200 ppm in series [1] and in series [2] was 80 to 100% throughout.

For the compound `C#CCN(C(=O)CCS(=O)(=O)CCC(F)(F)F)c1sc(-c2cccnc2)nc1C` [Compound P8, N-(4-Methyl-2-(pyridin-3-yl)thiazol-5-yl)-N-(prop-2-yn-1-yl)-3-((3,3,3-trifluoropropyl)sulfonyl) propanamide], the mortality at 200 ppm in series [1] and in series [2] was 80 to 100% in each case.

For orientation: mortality means the percentage killed.
